Experimental data: patent US20250145589A1, “PYRIDINE DERIVATIVE AND USE THEREOF” (SICHUAN HUIYU PHARMACEUTICAL CO., LTD., priority 2021, published 2025)
Read-outs that look alike come from different tables or passages of the source.

Legend:
PI3Kα = PI3Kα (Homo sapiens (Human), UniProt P42336); test: Inhibition of PI3Kα efficacy assay (ADP-Glo kinase assay); type: biochemical; conditions: read-out: PI3Kα inhibitory activity (IC50)
Procedure: Inhibition of PI3Kα Efficacy assay The ADP-Glo™ kinase assay was used to assess the inhibition of PI3Kα with our compounds. The utilized proteins and assay reagents were obtained from the ADP-Glo™ Kinase Assay Kit (Promega). Initially, a 2 mM stock solution of the test compound (dissolved in DMSO) was serially diluted in five-fold concentrations using DMSO to obtain eight working solutions 1 (200′). […] Subsequently, 2 μL of 2.5×PI and ATP solution mixture were added to each well, mixed, and incubated at RT for 60 minutes. Then, 5 μL of ADP-Glo (containing 10 mM MgCl2) reagent was added to each well, mixed, and incubated at RT for 40 minutes. Finally, 10 μL of the Kinase Detection Reagent was added to each well, mixed, and incubated at RT for 40 minutes. […] Data were analyzed using GraphPad Prism with log(inhibitor) vs. response—Variable Slope(four parameters) fitting calculations for […]. (Note: The negative control refers to the group without inhibitor, and the blank control refers to the group without enzyme.) The data were presented in Tables 1 to 4.

[1] = system: NCI-H358 cells (KRAS G12C mutant); test: NCI-H358 cell proliferation inhibition (CellTiter-Glo); type: cell-based; conditions: Homo sapiens, NCI-H358, 72 h; H358 cells (G12C mutation), 3 days, Table 6; read-out: NCI-H358 (IC50)
Procedure: The CellTiter-Glo®, assay was used to detect the number of viable cells, in order to evaluate the anti-proliferation efficacy of compounds. […] The compounds were serially diluted 5-fold in DMSO to obtain 8 concentrations, and then further diluted with RPMI-640 (10% FBS) cell culture medium to obtain the working solutions (5′), 20 μL of each working solution was added to the cell culture supernatant in each well, and the plate was further incubated for 3 days at 37° C. with 5% CO2. The plate was then equilibrated with CellTiter-Glo® reagent at room temperature (25° C.) for 10-30 minutes. After aspirating 50 μL of the medium, 50 μL of CellTiter-Glo® reagent was added. The cells were thoroughly mixed with the CellTiter-Glo® reagent using a microplate shaker for 2 minutes, and then incubated at room temperature for 10 minutes. The 96-well plate was placed in a multi-mode microplate reader to record the luminescence values (RLU). The inhibition rate was calculated through the following equation: [formula] Data were analyzed using GraphPad Prism for IC50 values (Note: The negative control refers to the group without inhibitor).

PI3Kα, sequence (P42336 whole entry): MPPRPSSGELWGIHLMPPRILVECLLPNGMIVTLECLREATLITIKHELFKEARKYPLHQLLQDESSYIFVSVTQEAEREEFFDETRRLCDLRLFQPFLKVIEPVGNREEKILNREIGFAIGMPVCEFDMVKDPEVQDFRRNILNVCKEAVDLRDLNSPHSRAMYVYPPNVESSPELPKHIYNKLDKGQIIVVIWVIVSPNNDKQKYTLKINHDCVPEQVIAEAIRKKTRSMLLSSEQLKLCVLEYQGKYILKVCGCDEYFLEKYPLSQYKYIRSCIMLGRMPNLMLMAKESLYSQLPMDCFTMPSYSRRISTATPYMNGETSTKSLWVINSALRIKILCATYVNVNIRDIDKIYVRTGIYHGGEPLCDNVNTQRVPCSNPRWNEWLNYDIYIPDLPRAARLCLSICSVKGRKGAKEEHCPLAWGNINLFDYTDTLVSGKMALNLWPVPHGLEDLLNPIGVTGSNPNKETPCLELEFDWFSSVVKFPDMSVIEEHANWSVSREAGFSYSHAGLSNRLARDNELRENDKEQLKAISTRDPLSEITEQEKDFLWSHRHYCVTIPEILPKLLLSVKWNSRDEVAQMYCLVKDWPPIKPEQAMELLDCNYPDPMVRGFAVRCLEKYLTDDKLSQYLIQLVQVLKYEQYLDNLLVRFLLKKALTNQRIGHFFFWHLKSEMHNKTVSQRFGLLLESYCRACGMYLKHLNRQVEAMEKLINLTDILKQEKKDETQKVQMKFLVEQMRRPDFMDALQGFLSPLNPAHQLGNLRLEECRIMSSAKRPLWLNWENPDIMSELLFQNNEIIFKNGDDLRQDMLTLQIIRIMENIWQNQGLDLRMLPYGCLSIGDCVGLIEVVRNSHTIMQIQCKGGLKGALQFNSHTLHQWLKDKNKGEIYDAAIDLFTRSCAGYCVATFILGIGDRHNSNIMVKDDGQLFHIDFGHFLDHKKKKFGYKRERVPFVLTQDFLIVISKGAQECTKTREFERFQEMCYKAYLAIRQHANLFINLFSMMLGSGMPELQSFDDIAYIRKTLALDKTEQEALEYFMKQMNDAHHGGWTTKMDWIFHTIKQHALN
PI3Kα, sequence (P27986 whole entry partner): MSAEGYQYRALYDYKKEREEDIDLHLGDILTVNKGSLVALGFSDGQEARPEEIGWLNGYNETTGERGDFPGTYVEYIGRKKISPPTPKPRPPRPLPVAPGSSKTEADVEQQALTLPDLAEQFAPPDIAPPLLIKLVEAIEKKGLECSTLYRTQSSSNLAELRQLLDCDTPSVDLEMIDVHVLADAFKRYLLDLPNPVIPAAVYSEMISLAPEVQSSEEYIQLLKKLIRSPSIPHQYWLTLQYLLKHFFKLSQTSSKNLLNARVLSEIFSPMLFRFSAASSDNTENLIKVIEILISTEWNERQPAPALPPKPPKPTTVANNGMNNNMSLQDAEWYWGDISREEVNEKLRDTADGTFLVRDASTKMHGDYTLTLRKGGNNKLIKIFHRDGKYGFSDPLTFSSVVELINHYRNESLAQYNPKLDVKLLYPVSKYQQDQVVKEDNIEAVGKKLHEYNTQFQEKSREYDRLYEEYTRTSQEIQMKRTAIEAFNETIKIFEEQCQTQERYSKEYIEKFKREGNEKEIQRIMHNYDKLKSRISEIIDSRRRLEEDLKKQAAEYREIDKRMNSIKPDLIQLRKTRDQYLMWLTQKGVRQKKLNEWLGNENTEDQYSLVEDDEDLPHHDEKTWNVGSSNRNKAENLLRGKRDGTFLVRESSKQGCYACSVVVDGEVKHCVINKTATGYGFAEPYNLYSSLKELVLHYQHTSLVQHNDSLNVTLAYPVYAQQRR

SMILES	IC50 (PI3Kα; Table 2) [nM]	IC50 [1] [nM]	IC50 (PI3Kα; Table 1) [nM]	IC50 (PI3Kα; Table 4) [nM]
C=CC(=O)N1CCN(c2ncnc3ccc(-c4cnc(OC)c(NS(=O)(=O)c5c(F)cc(F)cc5F)c4)cc23)CC1 [Example 100, N-(5-(4-(4-acryloylpiperazin-1-yl)quinazolin-6-yl)-2-methoxypyridin-3-yl)-2,4,6-trifluorobenzenesulfonamide]	0.54	155		
COc1ncc(-c2ccc3ncnc(N4CC5CCC(C4)N5C(=O)/C=C/C(C)=O)c3c2)cc1NS(=O)(=O)c1ccccc1F [Example 151, 2-fluoro-N-(2-methoxy-5-(4-(8-((E)-4-oxopent-2-enoyl)-3,8-diazabicyclo[3.2.1]octan-3-yl)quinazolin-6-yl)pyridin-3-yl)benzenesulfonamide]		80.3		5.9
COc1ncc(-c2ccc3ncnc(N4CC5CCC(C4)N5C(=O)/C=C/C(C)=O)c3c2)cc1NS(=O)(=O)c1ccc(F)cc1 [Example 149, 4-fluoro-N-(2-methoxy-5-(4-(8-((E)-4-oxopent-2-enoyl)-3,8-diazabicyclo[3.2.1]octan-3-yl)quinazolin-6-yl)pyridin-3-yl)benzenesulfonamide]		90.7		3.3
COc1ncc(-c2ccc3ncnc(NC4CCN(C(=O)/C=C/C(C)=O)C4)c3c2)cc1NS(=O)(=O)c1ccc(F)cc1F (stereo not drawn) [Example 148, (E)-2,4-difluoro-N-(2-methoxy-5-(4-((1-(4-oxopent-2-enoyl)pyrrolidin-3-yl)amino)quinazolin-6-yl)pyridin-3-yl)benzenesulfonamide]		638		9.2
COc1ncc(-c2ccc3ncnc(N4CC5CC(C4)N5C(=O)/C=C/C(C)=O)c3c2)cc1NS(=O)(=O)c1ccc(F)cc1F [Example 142, (E)-2,4-difluoro-N-(2-methoxy-5-(4-(6-(4-oxopent-2-enoyl)-3,6-diazabicyclo[3.1.1]heptan-3-yl)quinazolin-6-yl)pyridin-3-yl)benzenesulfonamide]		351		0.57
C=C(C(=O)N1CCN(c2ncnc3ccc(-c4cnc(OC)c(NS(=O)(=O)c5ccc(F)cc5F)c4)cc23)CC1)C(C)C [Example 63, 2,4-difluoro-N-(2-methoxy-5-(4-(4-(3-methyl-2-methylene-butanoyl)piperazin-1-yl)quinazolin-6-yl)pyridin-3-yl) benzene-sulfonamide]	6.2	19.6		
C=CC(=O)N1CCN(c2ncnc3ccc(-c4cnc(OC)c(NS(=O)(=O)c5c(F)cccc5F)c4)cc23)C[C@@H]1CC#N [Example 117, (S)-N-(5-(4-(4-acryloyl-3-(cyanomethyl)piperazin-1-yl)quinazolin-6-yl)-2-methoxypyridin-3-yl)-2,6-difluorobenzenesulfonamide]	1.5	37		
CC(=O)/C=C/C(=O)N1CC2(CCN(c3ncnc4ccc(-c5cnc(Cl)c(NS(=O)(=O)c6c(F)cccc6F)c5)cc34)C2)C1 [Example 86, (E)-N-(2-chloro-5-(4-(2-(4-oxopent-2-enoyl)-2,6-diazaspiro[3.4]octan-6-yl)quinazolin-6-yl)pyridin-3-yl)-2,6-difluorobenzenesulfonamide]	0.31	271		
C=C(F)C(=O)N1C2CCC1CN(c1ncnc3ccc(-c4cnc(OC)c(NS(=O)(=O)c5ccc(F)cc5F)c4)cc13)C2 [Example 146, 2,4-difluoro-N-(5-(4-(8-(2-fluoroacryloyl)-3,8-diazabicyclo[3.2.1]octan-3-yl)quinazolin-6-yl)-2-methoxypyridin-3-yl)benzenesulfonamide]		82.1		2.1

Further lines, with some results ahead:

IC50 (PI3Kα; Table 2) [nM]	IC50 [1] [nM]	IC50 (PI3Kα; Table 1) [nM]	SMILES	IC50 (PI3Kα; Table 4) [nM]
21.7	278		COc1ncc(-c2ccc3ncnc(N4CCN(C(=O)/C=C/C(C)=O)CC4)c3c2)cc1NS(=O)(=O)Nc1ccc(F)cc1F [Example 128, N-(2,4-difluorophenyl)[(2-methoxy-5-(4-(4-[(2E)-4-oxopent-2-enoyl]piperazin-1-yl)quinazolin-6-yl)pyridin-3-yl)amino]sulfonamide]	
5.2	292		COc1ncc(-c2ccc3ncnc(N4CCC5(CN(C(=O)/C=C/n6ccnn6)C5)C4)c3c2)cc1NS(=O)(=O)c1ccc(F)cc1F [Example 61, (E)-N-(5-(4-(2-(3-(1H-1,2,3-triazol-1-yl)acryloyl)-2,6-diazaspiro [3.4]octan-6-yl)quinazolin-6-yl)-2-methoxy-pyridin-3-yl)-2,4-difluoro-benzene-sulfonamide]	
2.8	213		C=C(F)C(=O)N1CCN(c2ncnc3ccc(-c4cnc(Cl)c(NS(=O)(=O)c5c(F)cccc5F)c4)cc23)CC1 [Example 85, N-(2-chloro-5-(4-(4-(2-fluoroacryloyl)piperazin-1-yl)quinazolin-6-yl)pyridin-3-yl)-2,6-difluorobenzenesulfonamide]	
414	576		COc1ccc(-c2ccc3ncnc(N4CCN(C(=O)/C=C/C(C)=O)CC4)c3c2)cc1NS(=O)(=O)c1ccc(F)cc1F [Example 95, (E)-2,4-difluoro-N-(2-methoxy-5-(4-(4-(4-oxopent-2-enoyl)piperazin-1-yl)quinazolin-6-yl)phenyl)benzenesulfonamide]	
	102	0.64	COc1ncc(-c2ccc3ncnc(N4CCN(C(=O)/C=C/CN(C)C)CC4)c3c2)cc1NS(=O)(=O)c1ccc(F)cc1F [Example 11, (E)-N-(5-(4-(4-(4-(dimethylamino)but-2-enoyl)piperazin-1-yl)quinazolin-6-yl)-2-methoxypyridin-3-yl)-2,4-difluorobenzenesulfonamide]	
4.4	520		C=CC(=O)N1C[C@H](C)N(c2ncnc3ccc(-c4cnc(OC)c(NS(=O)(=O)c5c(F)cccc5F)c4)cc23)C[C@H]1C [Example 53, N-(5-(4-((2S,5R)-4-acryloyl-2,5-dimethylpiperazin-1-yl)quinazolin-6-yl)-2-methoxypyridin-3-yl)-2,6-difluorobenzene-sulfonamide]	
	80.6		COc1ncc(-c2ccc3ncnc(N4CC5(CN(C(=O)/C=C/C(C)=O)C5)C4)c3c2)cc1NS(=O)(=O)c1ccc(F)cc1F [Example 141]	0.3
	156		COc1ncc(-c2ccc3ncnc(N4CCN(C(=O)/C=C/C(C)=O)C[C@@H]4C)c3c2)cc1NS(=O)(=O)c1c(F)cncc1F [Example 164, (S,E)-3,5-difluoro-N-(2-methoxy-5-(4-(2-methyl-4-(4-oxopent-2-enoyl)piperazin-1-yl)quinazolin-6-yl)pyridin-3-yl)pyridine-4-sulfonamide]	2.8
	190		COc1ncc(-c2ccc3ncnc(N4CCC5(CC4)CN(C(=O)/C=C/C(C)=O)C5)c3c2)cc1NS(=O)(=O)c1c(F)cncc1F [Example 163, (E)-3,5-difluoro-N-(2-methoxy-5-(4-(2-(4-oxopent-2-enoyl)-2,7-diazaspiro[3.5]nonan-7-yl)quinazolin-6-yl)pyridin-3-yl)pyridine-4-sulfonamide]	0.25
2.4	131		CC(=O)/C=C/C(=O)N1CC2(CCN(c3ncnc4ccc(-c5cnc(Cl)c(NS(=O)(=O)c6c(F)cccc6F)c5)cc34)CC2)C1 [Example 87, (E)-N-(2-chloro-5-(4-(2-(4-oxopent-2-enoyl)-2,7-diazaspiro[3.5]nonan-7-yl)quinazolin-6-yl)pyridin-3-yl)-2,6-difluorobenzenesulfonamide]	
2.5	10.4		COc1ncc(-c2ccc3ncnc(N4CCN(C(=O)C5=CC(=O)CCC5)CC4)c3c2)cc1NS(=O)(=O)c1c(F)cccc1F [Example 54, 2,6-difluoro-N-(2-methoxy-5-(4-(4-(3-oxocyclohex-1-ene-1-carbonyl)piperazin-1-yl)quinazolin-6-yl)pyridin-3-yl) benzenesulfonamide]	
9.8	24.2		COC(=O)/C=C/C(=O)N1CCN(c2ncnc3ccc(-c4cnc(OC)c(NS(=O)(=O)c5ccc(F)cc5F)c4)cc23)CC1 [Example 67, methyl (E)-4-(4-(6-(5-((2,4-difluorophenyl)sulfonamido)-6-methoxy-pyridin-3-yl)quinazolin-4-yl)piperazin-1-yl)-4-oxobut-2-enoate]	
